Like-named read-outs stand apart in the source and are kept apart here.
Experiments:
PI3Kα = target: T1, PI3Kα (Homo sapiens, UniProt P42336); assay: PI3K kinases inhibition in vitro (ADP-Glo), PI3Kα; format: biochemical
T1 construct: purchased Carna Biosciences
Method: (§1) Tested compounds were dissolved in 100% DMSO, and thus obtained solutions were serially diluted in 1× reaction buffer. Recombinant kinase was diluted in a reaction mixture comprising 5× reaction buffer, substrate (1 mM sodium diacetate 4,5-bisphosphate phosphatydylinositol (PIP2) solution in 40 mM Tris buffer), and water. To the wells in a 96-wells plate, 5 μl of compounds solutions and 15 μl of the kinase solution in the reaction mixture were added. To initiate interaction of tested chemical compounds with the enzyme, the plate was incubated for 10 minutes at suitable temperature in a plate thermostat with orbital shaking at 600 rpm. Negative control wells contained all above reagents except tested compound and kinase, and positive control wells contained all above reagents except tested compounds. Enzymatic reaction was initiated by adding 5 μl of 150 μM ATP solution, subsequently the plate was incubated for 1 hour at 25° C. or 30° C. (depending on PI3K isoform tested) in plate thermostat with orbital shaking of the plate contents at 600 rpm. Reaction conditions are presented below in Table 12.
(§2) Detection of ADP formed in the enzymatic reaction was then performed using ADP-Glo Kinase Assay (Promega). To the wells of a 96-well plate 25 μl of ADP-Glo Reagent were added, and the plate was incubated for 40 minutes at 25° C. in a plate thermostat with orbital shaking at 600 rpm. Then to the wells of 96-well plate 50 μl of Kinase Detection Reagent were added and the plate was incubated for 40 minutes at 25° C. in a plate thermostat with orbital shaking at 600 rpm. After incubation time, luminescence intensity in a well was measured by Victor Light luminometer (Perkin Elmer, Inc.).
(§3) IC50 values were determined on the basis of luminescence intensity measurements in wells containing tested compounds at different concentrations and in control wells. These values were calculated with Graph Pad 5.03 software by fitting the curve using non-linear regression. Each compound was tested at least in quadruplicates (4 wells) on two 96-well plates using at least 4 wells of each of the controls.

PI3Kδ = target: T2, PI3Kδ (Homo sapiens, UniProt O00329); assay: PI3K kinases inhibition in vitro (ADP-Glo), PI3Kδ; format: biochemical
T2 construct: purchased Merck Millipore
T2 sequence (O00329 whole entry): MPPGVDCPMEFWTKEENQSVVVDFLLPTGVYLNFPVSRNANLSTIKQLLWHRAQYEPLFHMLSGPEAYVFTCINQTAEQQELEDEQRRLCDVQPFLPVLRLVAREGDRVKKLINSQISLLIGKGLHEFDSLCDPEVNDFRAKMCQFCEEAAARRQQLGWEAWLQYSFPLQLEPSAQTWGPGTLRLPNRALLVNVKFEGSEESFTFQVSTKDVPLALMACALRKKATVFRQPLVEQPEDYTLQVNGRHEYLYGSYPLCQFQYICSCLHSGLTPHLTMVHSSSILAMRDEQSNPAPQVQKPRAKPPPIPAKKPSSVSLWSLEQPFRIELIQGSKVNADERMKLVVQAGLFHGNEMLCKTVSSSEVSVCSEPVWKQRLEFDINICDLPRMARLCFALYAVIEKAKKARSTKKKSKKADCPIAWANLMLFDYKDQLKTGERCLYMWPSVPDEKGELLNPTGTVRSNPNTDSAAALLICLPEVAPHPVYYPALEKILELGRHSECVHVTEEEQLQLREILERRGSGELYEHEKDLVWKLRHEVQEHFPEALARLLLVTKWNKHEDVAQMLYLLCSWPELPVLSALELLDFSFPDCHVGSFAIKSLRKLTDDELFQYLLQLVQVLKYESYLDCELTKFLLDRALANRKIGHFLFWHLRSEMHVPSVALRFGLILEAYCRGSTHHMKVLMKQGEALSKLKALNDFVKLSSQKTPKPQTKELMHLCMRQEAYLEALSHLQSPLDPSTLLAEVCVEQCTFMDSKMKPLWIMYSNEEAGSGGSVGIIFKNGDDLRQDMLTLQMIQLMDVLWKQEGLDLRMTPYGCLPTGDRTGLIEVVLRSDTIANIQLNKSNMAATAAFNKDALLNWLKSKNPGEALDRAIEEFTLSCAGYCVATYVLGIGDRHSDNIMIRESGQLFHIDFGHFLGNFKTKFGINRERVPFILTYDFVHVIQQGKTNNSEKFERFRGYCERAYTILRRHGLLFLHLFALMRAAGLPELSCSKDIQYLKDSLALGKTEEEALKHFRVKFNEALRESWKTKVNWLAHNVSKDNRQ
T2 sequence (P27986 whole entry, further chain): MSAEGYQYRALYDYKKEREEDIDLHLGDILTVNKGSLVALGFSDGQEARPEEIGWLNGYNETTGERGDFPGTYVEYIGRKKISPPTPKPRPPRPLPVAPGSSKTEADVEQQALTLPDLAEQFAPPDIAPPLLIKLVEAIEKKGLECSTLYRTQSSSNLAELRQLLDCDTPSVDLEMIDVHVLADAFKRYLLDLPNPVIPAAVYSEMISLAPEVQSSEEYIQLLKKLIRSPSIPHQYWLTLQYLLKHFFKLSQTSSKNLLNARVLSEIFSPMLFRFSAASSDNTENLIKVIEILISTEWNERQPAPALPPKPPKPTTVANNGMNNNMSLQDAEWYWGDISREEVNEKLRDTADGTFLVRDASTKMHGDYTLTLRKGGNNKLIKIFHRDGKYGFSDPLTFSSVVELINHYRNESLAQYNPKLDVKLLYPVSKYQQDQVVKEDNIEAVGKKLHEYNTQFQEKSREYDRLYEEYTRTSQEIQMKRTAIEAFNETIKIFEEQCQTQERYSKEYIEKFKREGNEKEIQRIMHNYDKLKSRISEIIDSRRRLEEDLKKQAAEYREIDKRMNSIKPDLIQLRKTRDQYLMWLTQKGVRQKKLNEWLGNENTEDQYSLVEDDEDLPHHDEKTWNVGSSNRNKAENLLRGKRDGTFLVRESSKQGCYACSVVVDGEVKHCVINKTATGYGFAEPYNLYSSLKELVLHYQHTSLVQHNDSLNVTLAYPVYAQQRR
Method: as §1, §2, §3

[1] = averaged, recombinant kinase, 25° C., 1 h, PIP2 30 μM, read-out: PI3Kδ IC50

T1 sequence (P42336 whole entry): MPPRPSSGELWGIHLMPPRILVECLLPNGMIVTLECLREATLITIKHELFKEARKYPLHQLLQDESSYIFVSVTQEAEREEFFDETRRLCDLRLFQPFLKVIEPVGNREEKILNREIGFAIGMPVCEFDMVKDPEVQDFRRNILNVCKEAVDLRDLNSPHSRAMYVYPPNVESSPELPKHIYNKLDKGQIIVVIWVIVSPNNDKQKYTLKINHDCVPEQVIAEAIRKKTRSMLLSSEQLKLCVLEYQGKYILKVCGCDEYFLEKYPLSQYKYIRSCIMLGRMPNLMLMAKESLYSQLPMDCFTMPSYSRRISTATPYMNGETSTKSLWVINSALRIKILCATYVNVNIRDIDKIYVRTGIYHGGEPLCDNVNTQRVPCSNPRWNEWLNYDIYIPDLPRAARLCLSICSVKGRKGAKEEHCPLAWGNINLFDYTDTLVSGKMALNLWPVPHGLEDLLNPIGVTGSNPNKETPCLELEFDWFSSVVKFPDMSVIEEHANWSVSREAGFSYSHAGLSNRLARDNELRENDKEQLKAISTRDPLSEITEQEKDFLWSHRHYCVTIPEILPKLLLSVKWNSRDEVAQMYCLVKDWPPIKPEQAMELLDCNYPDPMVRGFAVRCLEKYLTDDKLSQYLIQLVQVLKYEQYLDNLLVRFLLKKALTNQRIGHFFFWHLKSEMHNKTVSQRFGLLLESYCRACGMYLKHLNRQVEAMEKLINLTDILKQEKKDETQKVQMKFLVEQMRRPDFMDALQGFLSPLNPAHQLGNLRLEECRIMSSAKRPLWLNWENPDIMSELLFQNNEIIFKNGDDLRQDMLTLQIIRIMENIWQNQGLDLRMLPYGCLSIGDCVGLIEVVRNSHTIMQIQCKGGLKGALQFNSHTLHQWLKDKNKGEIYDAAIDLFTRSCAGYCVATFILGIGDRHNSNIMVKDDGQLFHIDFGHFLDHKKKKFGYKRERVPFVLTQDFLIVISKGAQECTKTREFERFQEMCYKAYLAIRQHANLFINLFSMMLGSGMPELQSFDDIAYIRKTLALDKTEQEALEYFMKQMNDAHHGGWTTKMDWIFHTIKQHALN
T1 sequence (P27986 whole entry partner): as the sequence (P27986 whole entry, further chain) above

CS(=O)(=O)N1CCN(Cc2cc3nc(-c4cccc5[nH]ccc45)cc(N4CCOCC4)n3n2)CC1 [Example 2, 5-(1H-indol-4-yl)-2-((4-(methyl-sulphonyl)piperazin-1-yl)methyl)-7-(morpholin-4-yl)pyrazolo[1,5-a]-pyrimidine]
IC50 (PI3Kα): > 1 µM
IC50 (PI3Kδ): 0.1 to 1 µM

CN1CCN(C2CCN(Cc3cc4nc(-c5cccc6[nH]ccc56)cc(N5CCOCC5)n4n3)CC2)CC1 [Example 3, 5-(1H-indol-4-yl)-2-((4-(4-methylpiperazin-1-yl)piperidin-1-yl)methyl)-7-(morpholin-4-yl)pyrazolo[1,5-a] pyrimidine]
IC50 (PI3Kα): > 1 µM
IC50 (PI3Kδ): < 0.1 µM

COc1ccc(N2CCN(Cc3cc4nc(-c5cccc6[nH]ccc56)cc(N5CCOCC5)n4n3)CC2)cc1 [Example 6, 5-(1H-indol-4-yl)-2-((4-(4-methoxyphenyl)piperazin-1-yl)-methyl)-7-(morpholin-4-yl)-pyrazolo[1,5-a]pyrimidine]
IC50 (PI3Kα): > 1 µM
IC50 (PI3Kδ): 0.1 to 1 µM

CC(C)(C)N1CCN(Cc2cc3nc(-c4cccc5[nH]ncc45)cc(N4CCOCC4)n3n2)CC1 [Example 12, 2-((4-tert-butylpiperazin-1-yl)methyl)-5-(1H-indazol-4-yl)-7-(morpholin-4-yl)pyrazolo[1,5-a]-pyrimidine]
IC50 (PI3Kα): > 1 µM
IC50 (PI3Kδ; [1]): < 0.1 µM

CN1CCN(C2CCN(Cc3cc4nc(-c5c(F)ccc6[nH]ccc56)cc(N5CCOCC5)n4n3)CC2)CC1 [Example 14, 5-(5-fluoro-1H-indol-4-yl)-2-((4-(4-methylpiperazin-1-yl)piperidin-1-yl)methyl)-7-(morpholin-4-yl)-pyrazolo[1,5-a]pyrimidine]
IC50 (PI3Kα): > 1 µM
IC50 (PI3Kδ; [1]): < 0.1 µM

CC(C)(O)C1CCN(Cc2cc3nc(-c4cccc5[nH]ncc45)cc(N4CCOCC4)n3n2)CC1 [Example 15, 2-((4-(2-hydroxypropan-2-yl)-piperidin-1-yl)methyl)-5-(1H-indazol-4-yl)-7-(morpholin-4-yl)-pyrazolo[1,5-a]pyrimidine]
IC50 (PI3Kα): > 1 µM
IC50 (PI3Kδ; [1]): 0.1 to 1 µM

CC(C)(O)C1CCN(Cc2cc3nc(-c4cnc(N)nc4)cc(N4CCOCC4)n3n2)CC1 [Example 18, 5-(2-aminopyrimidin-5-yl)-2-((4-(2-hydroxypropan-2-yl)piperidin-1-yl)methyl)-7-(morpholin-4-yl)-pyrazolo[1,5-a]pyrimidine]
IC50 (PI3Kα): > 1 µM
IC50 (PI3Kδ; [1]): 0.1 to 1 µM

CN1CCN(Cc2cc3nc(-c4cccc5[nH]ccc45)cc(N4CCOCC4)n3n2)CC1 [Example 21, 5-(1H-indol-4-yl)-2-((4-methyl-piperazin-1-yl)methyl)-7-(morpholin-4-yl)pyrazolo[1,5-a]-pyrimidine]
IC50 (PI3Kα): > 1 µM
IC50 (PI3Kδ): 0.1 to 1 µM

O=S1(=O)CCN(Cc2cc3nc(-c4cccc5[nH]ccc45)cc(N4CCOCC4)n3n2)CC1 [Example 23, 2-((1,1-dioxothio-morpholin-1-yl)-methyl)-5-(1H-indol-4-yl)-7-(morpholin-4-yl)pyrazolo[1,5-a]-pyrimidine]
IC50 (PI3Kα): > 1 µM
IC50 (PI3Kδ): 0.1 to 1 µM

COC(=O)C1CCN(Cc2cc3nc(-c4cccc5[nH]ccc45)cc(N4CCOCC4)n3n2)CC1 [Example 24, Methyl 1-((5-(1H-indol-4-yl)-7-(morpholin-4-yl)pyrazolo[1,5-a]-pyrimidin-2-yl)methyl)piperidin-4-carboxylate]
IC50 (PI3Kα): > 1 µM
IC50 (PI3Kδ): 0.1 to 1 µM

c1cc(-c2cc(N3CCOCC3)n3nc(CN4CCN(CC5CC5)CC4)cc3n2)c2cc[nH]c2c1 [Example 26, 2-((4-(cyclopropylmethyl)piperazin-1-yl)methyl)-5-(1H-indol-4-yl)-7-(morpholin-4-yl)pyrazolo[1,5-a]-pyrimidine]
IC50 (PI3Kα): > 1 µM
IC50 (PI3Kδ): < 0.1 µM

c1cc(-c2cc(N3CCOCC3)n3nc(CN4CCN(C5CCCC5)CC4)cc3n2)c2cc[nH]c2c1 [Example 27, 2-((4-cyclopentylpiperazin-1-yl)-methyl)-5-(1H-indol-4-yl)-7-(morpholin-4-yl)pyrazolo[1,5-a]-pyrimidine]
IC50 (PI3Kα): > 1 µM
IC50 (PI3Kδ): < 0.1 µM

c1cc(-c2cc(N3CCOCC3)n3nc(CN4CCN(C5COC5)CC4)cc3n2)c2cc[nH]c2c1 [Example 34]
IC50 (PI3Kα): > 1 µM
IC50 (PI3Kδ): < 0.1 µM

c1cc(-c2cc(N3CCOCC3)n3nc(CN4C[C@@H]5C[C@H]4CN5C4COC4)cc3n2)c2cc[nH]c2c1 [Example 36, 5-(1H-indol-4-yl)-2-(((1S, 4S)-2-(oxetan-3-yl)-2,5-diazabicyclo [2.2.1]hept-2-yl)methyl)-7-(morpholin-4-yl)pyrazolo[1,5-a]-pyrimidine]
IC50 (PI3Kα): > 1 µM
IC50 (PI3Kδ): < 0.1 µM

O=C(Nc1ccccc1)NC1CCN(Cc2cc3nc(-c4cccc5[nH]ccc45)cc(N4CCOCC4)n3n2)CC1 [Example 37]
IC50 (PI3Kδ): 0.1 to 1 µM

CCNC(=O)NC1CCN(Cc2cc3nc(-c4cccc5[nH]ccc45)cc(N4CCOCC4)n3n2)CC1 [Example 38]
IC50 (PI3Kα): > 1 µM
IC50 (PI3Kδ): 0.1 to 1 µM

CCc1nc2ccccc2n1-c1cc(N2CCOCC2)n2nc(CN3CCN(S(C)(=O)=O)CC3)cc2n1 [Example 42, 5-(2-ethylbenzimidazol-1-yl)-2-((4-(methylsulphonyl)piperazin-1-yl)methyl)-7-(morpholin-4-yl)-pyrazolo[1,5-a]pyrimidine]
IC50 (PI3Kα): > 1 µM
IC50 (PI3Kδ; [1]): 0.1 to 1 µM

CCc1nc2ccccc2n1-c1cc(N2CCOCC2)n2nc(CN3CCC(N(C)C)CC3)cc2n1 [Example 43, 5-(2-ethylbenzimidazo-1-yl)-2-((4-(dimethylamino)piperidin-1-yl)-methyl)-7-(morpholin-4-yl)-pyrazolo[1,5-a]pyrimidine]
IC50 (PI3Kα): > 1 µM
IC50 (PI3Kδ; [1]): 0.1 to 1 µM

CCc1nc2ccccc2n1-c1cc(N2CCOCC2)n2nc(CN3CCN(C(C)(C)C)CC3)cc2n1 [Example 47, 5-(2-ethylbenzimidazol-1-yl)-2-((4-tert-butylpiperazin-1-yl)methyl)-7-(morpholin-4-yl)pyrazolo[1,5-a]-pyrimidine]
IC50 (PI3Kα): > 1 µM
IC50 (PI3Kδ; [1]): < 0.1 µM

Cc1nc2ccccc2n1-c1cc(N2CCOCC2)n2nc(CN3CCN(C(C)(C)C)CC3)cc2n1 [Example 48, 5-(2-methylbenzimidazol-1-yl)-2-((4-tert-butylopiperazin-1-yl)-methyl)-7-(morpholin-4-yl)-pyrazolo[1,5-a]pyrimidine]
IC50 (PI3Kα): > 1 µM
IC50 (PI3Kδ; [1]): 0.1 to 1 µM

Cc1nc2ccccc2n1-c1cc(N2CCOCC2)n2nc(CN3CCC(C(C)(C)O)CC3)cc2n1 [Example 49, 5-(2-methylbenzimidazol-1-yl)-2-((4-(2-hydroxypropan-2-yl)-piperidin-1-yl)methyl)-7-(morpholin-4-yl)pyrazolo[1,5-a]-pyrimidine]
IC50 (PI3Kα): > 1 µM
IC50 (PI3Kδ; [1]): 0.1 to 1 µM

CC(C)c1nc2ccccc2n1-c1cc(N2CCOCC2)n2nc(CN3CCN(C(C)(C)C)CC3)cc2n1 [Example 52, 5-(2-iso-propylbenzimidazol-1-yl)-2-((4-tert-butylpiperazin-1-yl)-methyl)-7-(morpholin-4-yl)-pyrazolo[1,5-a]pyrimidine]
IC50 (PI3Kα): > 1 µM
IC50 (PI3Kδ; [1]): 0.1 to 1 µM

CC(C)c1nc2ccccc2n1-c1cc(N2CCOCC2)n2nc(CN3CCC(C(C)(C)O)CC3)cc2n1 [Example 53, 5-(2-iso-propylbenzimidazol-1-yl)-2-((4-(2-hydroxypropan-2-yl)-piperidin-1-yl)methyl)-7-(morpholin-4-yl)pyrazolo[1,5-a]-pyrimidine]
IC50 (PI3Kα): > 1 µM
IC50 (PI3Kδ; [1]): 0.1 to 1 µM

CC(C)(C)N1CCN(Cc2cc3nc(-n4c(C5CC5)nc5ccccc54)cc(N4CCOCC4)n3n2)CC1 [Example 54, 5-(2-cyclopropylbenzimidazol-1-yl)-2-((4-tert-butylpiperazin-1-yl)-methyl)-7-(morpholin-4-yl)-pyrazolo[1,5-a]pyrimidine]
IC50 (PI3Kα): > 1 µM
IC50 (PI3Kδ; [1]): 0.1 to 1 µM

CC(C)(O)C1CCN(Cc2cc3nc(-n4c(C5CC5)nc5ccccc54)cc(N4CCOCC4)n3n2)CC1 [Example 55, 5-(2-cyclopropylbenzimidazol-1-yl)-2-((4-(2-hydroxypropan-2-yl)-piperidin-1-yl)methyl)-7-(morpholin-4-yl)pyrazolo[1,5-a]-pyrimidine]
IC50 (PI3Kα): > 1 µM
IC50 (PI3Kδ; [1]): 0.1 to 1 µM

C[C@@H]1CN(C2CN(Cc3cc4nc(-n5c(C(F)F)nc6ccccc65)cc(N5CCOCC5)n4n3)C2)C[C@H](C)O1 [Example 65, 5-(2-(difluoromethyl)benzimidazol-1-yl)-2-((3-((2R,6S)-2,6-dimethylmorpholin-4-yl)azetidin-1-yl)methyl)-7-(morpholin-4-yl)-pyrazolo[1,5-a]pyrimidine]
IC50 (PI3Kδ; [1]): < 0.1 µM

COC1CN(C2CN(Cc3cc4nc(-n5c(C(F)F)nc6ccccc65)cc(N5CCOCC5)n4n3)C2)C1 [Example 67, 5-(2-(difluoromethyl)benzimidazol-1-yl)-2-((3-(3-methoxyazetidin-1-yl)azetidin-1-yl)methyl)-7-(morpholin-4-yl)pyrazolo[1,5-a]-pyrimidine]
IC50 (PI3Kδ; [1]): < 0.1 µM

Reference: patent US10138247B2, “7-(morpholin-4-yl)pyrazole[1,5-A]pyrimidine derivatives as PI3 kinase inhibitors” (priority 2015, dated 2018)
